These results are taken from PubChem BioAssay (NCI).

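Growth conditions: 96-well plates. Treatment: test compound, 48 hours, 5 concentrations. Analysis: linear interpolation between bracketing concentrations; unreached endpoints set to highest concentration. GI50 marks 50% less growth. At the TGI there is no net growth.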 Bounds are passed on as bounds.

Test systems include BT-549 breast; MDA-MB-231 breast; MDA-MB-435; NCI/ADR-RES ovarian; MCF7 breast; T-47D breast.
Holding throughout (test): NCI tumour cell line growth inhibition, 48 h

`COc1cc(-c2nc3ccc(C)cc3[nH]2)ccc1OCC(=O)N=Nc1c(O)[nH]c2ccccc12`: the GI50 with BT-549 breast is 2.26 µM; in the assay on MDA-MB-231 breast, 1.64 µM; in the assay with MDA-MB-435, 1.63 µM; in the assay with NCI/ADR-RES ovarian it was above 100 µM. In addition, the TGI with BT-549 breast was 6.56 µM; in the assay on MDA-MB-231 breast, 3.1 µM; in the assay on MDA-MB-435, 3 µM; with NCI/ADR-RES ovarian, above 100 µM.
Regarding `Cc1c(CCCl)c(=O)n2c([nH]c3ccccc32)c1C#N`, the TGI with BT-549 breast is 3.63 µM; with MCF7 breast it was above 10 µM; with MDA-MB-231 breast, 3.09 µM; with MDA-MB-435, 4.05 µM; in the assay on NCI/ADR-RES ovarian it was 2.7 µM; in the assay with T-47D breast, 2.97 µM.
As for `CN(C(=O)c1ccc(Cl)s1)C(=S)N(C)C(=O)c1ccc(Cl)s1`, the TGI in the assay on BT-549 breast, in the assay with MCF7 breast, in the assay with MDA-MB-231 breast, in the assay on NCI/ADR-RES ovarian and in the assay with T-47D breast was above 10 µM throughout.
`CC[N+](CCCCCCCCCC[N+](CC)(c1ccccn1)c1ccccn1)(c1ccccn1)c1ccccn1`: the GI50 in the assay on BT-549 breast was 0.973 µM; in the assay with MCF7 breast it was 0.437 µM; in the assay on MDA-MB-231 breast, 2.24 µM; in the assay on MDA-MB-435, 0.609 µM; in the assay with NCI/ADR-RES ovarian it was 5.28 µM; in the assay on T-47D breast, 0.295 µM. Further, the TGI in the assay with BT-549 breast is 88.9 µM; with MCF7 breast, 4.26 µM; with MDA-MB-231 breast, 13.8 µM; in the assay on MDA-MB-435, 4.19 µM; in the assay with NCI/ADR-RES ovarian, 53.8 µM; with T-47D breast, 1.7 µM.
Take `CC1(C)C=CC[C@]2(C)[C@H]3CC[C@@H]4[C@H]5[C@H](C(=O)/C=C/c6cccnc6)CC[C@]5(CO)CC[C@@]4(C)[C@]3(C)CC[C@@H]12`: in the assay on MDA-MB-231 breast, the GI50 was 1.27 µM and the TGI is 2.67 µM. In addition, in the assay with MDA-MB-435, the GI50 is 1.32 µM and the TGI amounted to 2.64 µM.
Turning to `COc1ccc2c(c1)sc1nc(-c3ccccc3)c(-c3ccsc3)n12`, the GI50 in the assay with BT-549 breast was 6.56 µM; in the assay with MCF7 breast, 3.78 µM; in the assay with MDA-MB-231 breast it was 5.46 µM; in the assay with NCI/ADR-RES ovarian it was 2.53 µM; in the assay on T-47D breast, 6.27 µM. The TGI with BT-549 breast, in the assay on MCF7 breast, with MDA-MB-231 breast, with NCI/ADR-RES ovarian and with T-47D breast was above 100 µM in each case.
Take `Cc1cc(/C=C2\SC(=Nc3ccccc3)N(C3CCCC3)C2=O)c(C)n1-c1ccc(Cl)cc1`: the GI50 in the assay with BT-549 breast, with MCF7 breast, in the assay with MDA-MB-231 breast, in the assay with MDA-MB-435, in the assay on NCI/ADR-RES ovarian and in the assay on T-47D breast was above 100 µM throughout. The TGI in the assay on BT-549 breast, in the assay on MCF7 breast, in the assay on MDA-MB-231 breast, in the assay on MDA-MB-435, in the assay on NCI/ADR-RES ovarian and in the assay with T-47D breast was above 100 µM each time.
For the compound `S=C(Nc1ccc(-c2nc3ccccc3[nH]2)cc1)NC1CCCCC1`, the GI50 with BT-549 breast is 21.7 µM; with MCF7 breast, 19.7 µM; with MDA-MB-231 breast, 18.1 µM; with MDA-MB-435, 16.4 µM; in the assay on NCI/ADR-RES ovarian, 28.6 µM; with T-47D breast, 27 µM. Also, the TGI in the assay with BT-549 breast was 60.3 µM; in the assay on MCF7 breast, above 100 µM; in the assay on MDA-MB-231 breast, 43.1 µM; in the assay on MDA-MB-435, 43.3 µM; with NCI/ADR-RES ovarian, 82.2 µM.
In the case of `Oc1ccc(Br)cc1Sc1cc(Br)ccc1O`, the GI50 in the assay on BT-549 breast was 8.46 µM; with MCF7 breast, 11.2 µM; in the assay on MDA-MB-231 breast it was 6.58 µM; with MDA-MB-435, 5.23 µM; in the assay on NCI/ADR-RES ovarian, 5.06 µM; in the assay with T-47D breast, 4.36 µM. For the same compound, the TGI amounted to 23 µM in the assay on BT-549 breast; 30 µM in the assay with MCF7 breast; 23.2 µM in the assay on MDA-MB-231 breast; 19.8 µM in the assay on MDA-MB-435; 24.3 µM in the assay with NCI/ADR-RES ovarian; 17.7 µM in the assay with T-47D breast.
Consider `COc1cc(-c2cnn(C)c2)ccc1Nc1ncc2ccnc(N[C@@H](C)C(C)(C)C)c2n1`, for which the GI50 is above 68.5 µM with BT-549 breast; above 63.1 µM in the assay with MCF7 breast; 13.4 µM with MDA-MB-231 breast; above 75.1 µM in the assay with MDA-MB-435; above 43.4 µM with NCI/ADR-RES ovarian; above 100 µM in the assay on T-47D breast. In addition, the TGI with BT-549 breast, in the assay with MCF7 breast, in the assay on MDA-MB-231 breast, in the assay with MDA-MB-435, in the assay with NCI/ADR-RES ovarian and with T-47D breast was above 100 µM in each case.
In the case of `Nc1nc(-c2cccc([N+](=O)[O-])c2)c(Br)c(=O)[nH]1`, the TGI in the assay with BT-549 breast is above 63 µM; in the assay with MCF7 breast, above 65.3 µM; with MDA-MB-231 breast it was above 100 µM; in the assay with MDA-MB-435 it was above 100 µM; with NCI/ADR-RES ovarian, above 100 µM; with T-47D breast, above 100 µM.
Consider `CCN(CC)CCNc1c(OC)cc(C)c2sc3ccccc3c(=O)c12`, for which the TGI in the assay on BT-549 breast was 24.2 µM; with MCF7 breast, 18.7 µM; in the assay on MDA-MB-231 breast, 10.1 µM; in the assay on MDA-MB-435 it was 8.16 µM; in the assay on NCI/ADR-RES ovarian, 19.2 µM; in the assay on T-47D breast, 39.9 µM.
Turning to `Cc1ccc(C(=O)c2oc3ccc4c(C)cc(=O)oc4c3c2C)cc1`, the GI50 is 45.6 µM in the assay on BT-549 breast; 5.95 µM in the assay with MCF7 breast; 11.1 µM in the assay on MDA-MB-231 breast; 5.95 µM with MDA-MB-435; 10.2 µM in the assay on NCI/ADR-RES ovarian; 50.1 µM in the assay with T-47D breast. The TGI in the assay with BT-549 breast, with MCF7 breast, in the assay with MDA-MB-231 breast, in the assay on MDA-MB-435, in the assay with NCI/ADR-RES ovarian and in the assay with T-47D breast was above 100 µM in each case.
`O=c1cc(-c2ccccc2)[nH]c2cccc(S)c12`: the TGI in the assay with BT-549 breast was above 100 µM; in the assay on MCF7 breast, above 100 µM; with NCI/ADR-RES ovarian it was 0.236 µM; in the assay on T-47D breast, above 100 µM.
For the compound `COc1cc2nc(-c3ccc(C(F)(F)F)cc3)cc(OCCCN3CCOCC3)c2cc1OC`, the GI50 in the assay with BT-549 breast was 5 µM; in the assay with MCF7 breast it was 1.55 µM; in the assay with MDA-MB-231 breast it was 0.498 µM; in the assay on MDA-MB-435 it was 1.2 µM; in the assay with NCI/ADR-RES ovarian, 0.64 µM; with T-47D breast, 0.654 µM. Also, the TGI in the assay with BT-549 breast amounted to 20.9 µM; in the assay on MCF7 breast it was 11.7 µM; in the assay with MDA-MB-231 breast, 4.51 µM; with MDA-MB-435 it was 3.57 µM; with NCI/ADR-RES ovarian, 22.7 µM; in the assay on T-47D breast it was 23.8 µM.
